# Results published in patent US20130150399A1, “INHIBITORS OF THE UNFOLDED PROTEIN RESPONSE AND METHODS FOR THEIR USE” (The Board of Trustees of the Leland Stanford Junior …, priority 2006, published 2013).
# Assays:
# ATF6 = experiment: Western blot of ATF6 cleavage, hypoxic HT1080 cells; format: cell-based, human; settings: 2.5 μM
# Method: Cells (2×10^6) were cultured in 10-cm dishes, collected using a cell scraper at 4° C., and lysed by addition of 150 μl cell lysis buffer [50 mM Tris pH 7.4, 150 mM NaCl, 10% glycerol, 0.5% Triton X-100. 0.5% NP-40, 2 mM Na3VO4, 20 mM beta-glycerophosphate, 10 mM NaF, 1 mM DTT, 1 mM PMSF). Lysates were centrifuged for 5 min at 10,000×g, and proteins (˜40 μg) were resolved by SDS-PAGE followed by semi-dry transfer to nitrocellulose membranes. Membranes were blocked in TBS-5% milk supplemented with 0.1% Tween-20. The blots were then probed overnight with relevant antibodies, washed, and incubated for 2 hours with species-specific secondary antibodies conjugated to horseradish peroxidase. After washing in block solution, immunoreactive material was detected by enhanced chemiluminescence (SuperSignal West Dura Extended, Pierce, Inc., Rockville, Ill.).
# A. Effect of irestatin 9389 on PERK and ATF6 pathways. […] Protein lysates were analyzed by Western blot analysis using antisera specific for ATF6 (top), CHOP/GADD153 (middle) or actin (bottom). […] Cells were harvested, counted, and allowed to grow under normal culture conditions for 11-12 days. […] D. Quantification of clonogenic survival assay. […] F. Quantification of TUNEL-positive cells. […] Cells were harvested at the indicated times and counted by hemocytometer. Values represent the mean calculated from triplicate experiments+/−SEM. […]
# [1] = tested on: HT1080 tet-off Flag-XBP-1s cells; experiment: Colony formation of HT1080 tet-off Flag-XBP-1s cells under hypoxia; format: cell-based, human; settings: 2.5 μM, hypoxia 48 hours
# Method: A. Effect of irestatin 9389 on PERK and ATF6 pathways. HT1080 cells were treated with vehicle alone (lanes 1-4) or 2.5 μM irestatin 9389 (lanes 5-8) and cultured under aerobic conditions for 18 hours (N) or shifted to hypoxia for the indicated times. Protein lysates were analyzed by Western blot analysis using antisera specific for ATF6 (top), CHOP/GADD153 (middle) or actin (bottom). Arrow indicates the cleaved, transcriptionally active form of ATF6. B. Cleavage of caspase-3 in irestatin-treated cells under hypoxia. HT1080 cells were cultured in normoxia (N) or under hypoxia for 36 hours (H 36) in absence or presence of irestatin 9389 (2.5 μM). Arrows indicate proteolytically cleaved caspase-3. C. Colony formation assay. HT1080 cells were treated as in B under normoxia (N) or hypoxia for 48 hours (H 48). Cells were harvested, counted, and allowed to grow under normal culture conditions for 11-12 days. Colonies were visualized with crystal violet staining. D. Quantification of clonogenic survival assay. Values represent the mean+/−SEM from at least 4 independent experiments. E. TUNEL staining of cells treated as in C. F. Quantification of TUNEL-positive cells. Values represent the mean+/− SEM from at least 3 experiments. […] Cells were harvested at the indicated times and counted by hemocytometer. Values represent the mean calculated from triplicate experiments+/−SEM. […]
smiles,measurement,setting,value
Cc1csc(NC(=O)CSc2nc3c(c(C(F)(F)F)c2C#N)CCC3)n1 [Compound 9389],proteolytic cleavage of ATF6 into active 50 kDa form,ATF6,significantly increased the proteolytic cleavage of ATF6
same,decrease in viability,[1]; dox present (no Flag-XBP-1s),~60 fold
same,survival of hypoxic cells expressing Flag-XBP-1s,[1]; no dox,minimal effect on the survival
